Read-outs that look alike come from different tables or passages of the source.
Molecular target: CFTR (Homo sapiens, UniProt P13569)
Experiment: Membrane Potential Dye, Enteroid Assay B
Assay type: cell-based
How it was run: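 Human intestinal enteroid cells exposed to compound 18-24 h at 37 °C, then loaded with methyl oxonol membrane-potential dye plus CaCC blockers. Chloride transport triggered in chloride-free buffer with 10 μM forskolin, 100 μM IBMX, 300 nM Compound III; fluorescence read 15 min, expressed as % of triple-corrector/potentiator combination control.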

[1] = Table 10, read-out: Ent. B EC50

Sequence of CFTR (P13569 with tags, fused parts or gaps DEL508-508): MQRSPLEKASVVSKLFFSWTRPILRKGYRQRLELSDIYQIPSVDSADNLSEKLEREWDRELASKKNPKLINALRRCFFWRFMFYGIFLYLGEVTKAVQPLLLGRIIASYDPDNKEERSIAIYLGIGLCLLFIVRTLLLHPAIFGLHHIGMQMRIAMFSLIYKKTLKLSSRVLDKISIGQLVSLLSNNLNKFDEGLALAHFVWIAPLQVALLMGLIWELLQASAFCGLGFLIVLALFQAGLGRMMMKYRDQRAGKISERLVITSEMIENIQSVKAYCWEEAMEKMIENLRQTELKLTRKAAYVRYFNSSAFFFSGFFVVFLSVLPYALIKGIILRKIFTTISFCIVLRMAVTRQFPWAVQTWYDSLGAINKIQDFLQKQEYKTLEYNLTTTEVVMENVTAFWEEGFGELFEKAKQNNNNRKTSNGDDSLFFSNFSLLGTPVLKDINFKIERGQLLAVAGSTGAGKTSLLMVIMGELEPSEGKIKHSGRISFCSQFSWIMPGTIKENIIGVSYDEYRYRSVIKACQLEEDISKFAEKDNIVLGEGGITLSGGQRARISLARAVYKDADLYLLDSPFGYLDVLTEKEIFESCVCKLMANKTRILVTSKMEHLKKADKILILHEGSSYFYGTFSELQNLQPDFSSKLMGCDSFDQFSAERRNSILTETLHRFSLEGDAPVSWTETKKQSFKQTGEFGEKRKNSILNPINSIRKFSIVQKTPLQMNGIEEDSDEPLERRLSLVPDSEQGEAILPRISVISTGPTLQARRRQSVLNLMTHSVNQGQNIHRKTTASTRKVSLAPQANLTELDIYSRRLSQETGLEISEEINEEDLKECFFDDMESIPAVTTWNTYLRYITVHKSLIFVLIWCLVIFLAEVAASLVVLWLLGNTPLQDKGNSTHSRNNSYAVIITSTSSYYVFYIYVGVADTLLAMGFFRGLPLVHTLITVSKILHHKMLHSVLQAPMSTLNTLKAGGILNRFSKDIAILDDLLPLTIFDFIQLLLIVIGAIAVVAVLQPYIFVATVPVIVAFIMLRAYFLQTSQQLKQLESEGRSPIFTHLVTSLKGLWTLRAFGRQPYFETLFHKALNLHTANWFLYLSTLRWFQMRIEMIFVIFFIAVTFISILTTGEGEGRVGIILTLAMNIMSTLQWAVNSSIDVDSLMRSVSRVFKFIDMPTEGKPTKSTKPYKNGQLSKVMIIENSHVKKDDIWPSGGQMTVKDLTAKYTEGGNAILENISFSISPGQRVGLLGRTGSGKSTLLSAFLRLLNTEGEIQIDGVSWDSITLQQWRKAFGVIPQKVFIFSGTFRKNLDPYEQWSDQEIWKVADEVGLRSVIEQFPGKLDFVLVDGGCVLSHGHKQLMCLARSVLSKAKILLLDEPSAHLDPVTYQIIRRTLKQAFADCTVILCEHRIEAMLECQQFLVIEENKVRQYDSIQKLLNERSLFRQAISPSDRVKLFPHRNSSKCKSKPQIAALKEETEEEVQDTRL

Structure (SMILES)	Ent. B Max Activity (%) (Table 10)	EC50 [1] [nM]	Ent. B Max Activity (%) (Table 9)	EC50 (Table 9, read-out: Ent. B EC50) [nM]	other results
COC(=O)NC1CC2(C1)CC(N1C(=O)c3cccc(c3)S(=O)(=O)Nc3nc(cc(-c4c(C)cccc4C)n3)OC[C@H]1CC(C)(C)C)C2 (stereo partly drawn) [Compound 88, Methyl ((2S,4s,6S)-6-((R)-1^6-(2,6-dimethylphenyl)-7-neopentyl-3,3-dioxido-5-oxo-9-oxa-3-thia-2,6-diaza-1(2,4)-pyrimidina-4(1,3)-benzenacyclononaphane-6-yl)spiro[3.3]heptan-2-yl)carbamate]			+++ (+++ is >60%)	< 1000	
Cc1cccc(C)c1-c1cc2nc(n1)NS(=O)(=O)c1cccc(c1)C(=O)N(c1cnn(C)c1)[C@H](CC(C)(C)C)CO2 [Compound 230]	+++ (+++ is >60%)	< 1000			
[H][C@]1(N2C(=O)c3cccc(c3)S(=O)(=O)Nc3nc(cc(-c4c(C)cccc4C)n3)OC[C@H]2CC2(C(F)(F)F)CC2)C[C@]2(C[C@@H](CO)C2)C1 (single isomer, unassigned) [Compound 134]					Ent. B Max Activity (%): +++ (+++ is >60%); EC50 (read-out: Ent. B EC50): < 1000 nM
Cc1cccc(C)c1-c1cc2nc(n1)NS(=O)(=O)c1cccc(c1)C(=O)N(C1CC3(C1)CC(C(C)(C)O)C3)[C@H](CC(C)(C)C)CO2 (single isomer, unassigned) [Compound 116]	+++ (+++ is >60%)	< 1000			
Cc1cccc(C)c1-c1cc2nc(n1)NS(=O)(=O)c1cccc(c1)C(=O)N([C@H]1C[C@@H](NC(=O)OC(C)(C)C)C1)[C@H](CC1(C(F)(F)F)CC1)CO2 (single isomer, unassigned) [Compound 55]			+++ (+++ is >60%)	< 1000	
Cc1cccc(C)c1-c1cc2nc(n1)NS(=O)(=O)c1cccc(c1)C(=O)N(C1CC3(C1)CN(C(C)C)C3)[C@H](CC1(C(F)(F)F)CC1)CO2 [Compound 132, (11R)-6-(2,6-Dimethylphenyl)-12-(2-isopropyl-2-azaspiro[3.3]heptan-6-yl)-2,2-dioxo-11-[[1-(trifluoromethyl)cyclopropyl]methyl]-9-oxa-2λ^6-thia-3,5,12,19-tetrazatricyclo[12.3.1.14,8]nonadeca-1(18),4(19),5,7,14,16-hexaen-13-one]			+++ (+++ is >60%)	< 1000	
Cc1cccc(C)c1-c1cc2nc(n1)NS(=O)(=O)c1cccc(c1)C(=O)N([C@H]1CCN(C)C1)[C@H](CC(C)C)CO2 (stereo in doubt) [Compound 296]					Ent. B Max Activity (%): +++ (+++ is >60%); EC50 (read-out: Ent. B EC50): 3000 to 30000 nM
Cc1cccc(C)c1-c1cc2nc(n1)NS(=O)(=O)c1cccc(c1)C(=O)N(C1CC3(C1)CC(C(C)(C)O)C3)[C@H](CCC(C)(C)C)CO2 (single isomer, unassigned) [Compound 8]	+++ (+++ is >60%)	< 1000			
[H][C@]1(N2C(=O)c3cccc(c3)S(=O)(=O)Nc3nc(cc(-c4c(C)cccc4C)n3)OC[C@H]2CC2(C(F)(F)F)CC2)C[C@]2(C[C@@H](CO)C2)C1 (single isomer, unassigned) [Compound 135]					Ent. B Max Activity (%): +++ (+++ is >60%); EC50 (read-out: Ent. B EC50): < 1000 nM
Cc1cccc(C)c1-c1cc2nc(n1)NS(=O)(=O)c1cccc(c1)C(=O)N([C@H]1CCN(C)C1)[C@H](CC(C)C)CO2 (stereo in doubt) [Compound 295]					Ent. B Max Activity (%): +++ (+++ is >60%); EC50 (read-out: Ent. B EC50): < 1000 nM
CC(C)C[C@@H]1COc2cc(-c3c(C(F)(F)F)cccc3C(F)(F)F)nc(n2)NS(=O)(=O)c2cccc(c2)C(=O)N1C1CC2(CC2)C1 [Compound 186, (11R)-6-[2,6-Bis(trifluoromethyl)phenyl]-11-isobutyl-2,2-dioxo-12-spiro[2.3]hexan-5-yl-9-oxa-2λ^6-thia-3,5,12,19-tetrazatricyclo[12.3.1.14,8]nonadeca-1(18),4,6,8(19),14,16-hexaen-13-one]			++ (++ is 30-60%)	< 1000	
CCC(=O)NC1(C)CC(N2C(=O)c3cccc(c3)S(=O)(=O)Nc3nc(cc(-c4c(C)cccc4C)n3)OCC2CC(C)(C)C)C1 (stereo not shown) [Compound 243]	+++ (+++ is >60%)	< 1000			
Cc1cccc(C)c1-c1cc2nc(n1)NS(=O)(=O)c1cccc(c1)C(=O)N(C1CCC3(CC1)CC3)C[C@@H](C)O2 [Compound 442]					Ent. B Max Activity (%): ++ (++ is 30-60%); EC50 (read-out: Ent. B EC50): < 1000 nM
COC(=O)N1CCC2(CC1)CC(N1C(=O)c3cccc(n3)S(=O)(=O)Nc3nc(cc(-c4c(C)cccc4C)n3)OC[C@H]1CC(C)C)C2 [Compound 391]					Ent. B Max Activity (%): +++ (+++ is >60%); EC50 (read-out: Ent. B EC50): < 1000 nM
COCCN1CCC2(CC1)CC(N1C(=O)c3cccc(c3)S(=O)(=O)Nc3nc(cc(-c4c(C)cccc4C)n3)OC[C@H]1CC(C)(C)C(F)(F)F)C2 [Compound 190, (11R)-6-(2,6-dimethylphenyl)-12-[7-(2-methoxyethyl)-7-azaspiro[3.5]nonan-2-yl]-11-(3,3,3-trifluoro-2,2-dimethylpropyl)-9-oxa-2λ^6-thia-3,5,12,19-tetraazatricyclo[12.3.1.14,8]nonadeca-1(17),4(19),5,7,14(18),15-hexaene-2,2,13-trione]			+++ (+++ is >60%)	< 1000	
Cc1cccc(C)c1-c1cc2cc(n1)NS(=O)(=O)c1cccc(n1)C(=O)N(C1CC3(CC3)C1)[C@H](CC1(C(F)(F)F)CC1)CO2 [Compound 425]			+++ (+++ is >60%)	< 1000	
COC(=O)NC1CC(N2C(=O)c3cccc(c3)S(=O)(=O)Nc3nc(cc(-c4c(C)cccc4C)n3)OC[C@H]2CC2(C(F)(F)F)CC2)C1 (single isomer, unassigned) [Compound 58]			+++ (+++ is >60%)	< 1000	
COC(=O)N[C@H]1C[C@@]2(C1)C[C@H](N1C(=O)c3cccc(c3)S(=O)(=O)Nc3nc(cc(-c4c(C)cccc4C)n3)OC[C@H]1CC1(C(F)(F)F)CC1)C2 (stereo partly shown) [Compound 273]			+++ (+++ is >60%)	< 1000	
Cc1cccc(C)c1-c1cc2nc(n1)NS(=O)(=O)c1cccc(c1)C(=O)N(c1cnn(CC(C)C)c1)[C@H](CC(C)(C)C)CO2 [Compound 229]	+++ (+++ is >60%)	< 1000			

More lines, main results first:

Ent. B Max Activity (%) (Table 10)	EC50 [1] [nM]	Ent. B Max Activity (%) (Table 9)	EC50 (Table 9, read-out: Ent. B EC50) [nM]	Structure (SMILES)	other results
+++ (+++ is >60%)	< 1000			COCCNC(=O)O[C@H]1C[C@H](N2C(=O)c3cccc(c3)S(=O)(=O)Nc3nc(cc(-c4c(C)cccc4C)n3)OC[C@H]2CC(C)C)C1 (stereo in doubt) [Compound 364]	
+++ (+++ is >60%)	< 1000			[H][C@]1(N2C(=O)c3cccc(c3)S(=O)(=O)Nc3nc(cc(-c4c(C)cccc4C)n3)OC[C@H]2CC(C)C)C[C@@]2(C[C@H](NC(=O)OC(C)C)C2)C1 (single isomer, unassigned) [Compound 124]	
+++ (+++ is >60%)	< 1000			Cc1cccc(C)c1-c1cc2nc(n1)NS(=O)(=O)c1cccc(c1)C(=O)N([C@H]1C[C@@H](N3CCOC3=O)C1)[C@H](CC(C)(C)C)CO2 (stereo in doubt) [Compound 251]	
		+++ (+++ is >60%)	< 1000	Cc1cccc(C)c1-c1cc2nc(n1)NS(=O)(=O)c1cccc(c1)C(=O)N(C1CC3(CCN(C4CC(F)(F)C4)CC3)C1)[C@H](CC(C)C)CO2 [Compound 276]	
+++ (+++ is >60%)	< 1000			CC(=O)NCC[C@H]1C[C@@H](N2C(=O)c3cccc(c3)S(=O)(=O)Nc3nc(cc(-c4c(C)cccc4C)n3)OC[C@H]2CC(C)(C)C)C1 (single isomer, unassigned) [Compound 154]	
		+++ (+++ is >60%)	< 1000	Cc1cccc(C)c1-c1cc2nc(n1)NS(=O)(=O)c1cccc(c1)C(=O)N([C@H]1C[C@@H](CN(C)C)C1)[C@H](CC(C)C)CO2 (single isomer, unassigned) [Compound 106]	
		+++ (+++ is >60%)	< 1000	Cc1cccc(C)c1-c1cc2nc(n1)NS(=O)(=O)c1cccc(c1)C(=O)N(C1CC3(CCN(CC(C)(C)C)CC3)C1)[C@H](CC(C)C)CO2 [Compound 279]	
		+++ (+++ is >60%)	< 1000	Cc1cccc(C)c1-c1cc2nc(n1)NS(=O)(=O)c1cccc(c1)C(=O)N(C1CC3(CCN(C4CCC4)CC3)C1)[C@H](CC(C)C)CO2 [Compound 280]	
+++ (+++ is >60%)	< 1000			Cc1cccc(C)c1-c1cc2nc(n1)NS(=O)(=O)c1cccc(c1)C(=O)N([C@H]1C[C@@H](C(C)(C)O)C1)[C@H](CC(C)(C)C)CO2 (single isomer, unassigned) [Compound 141]	
		+++ (+++ is >60%)	< 1000	COCCCN(C)[C@H]1C[C@@H](N2C(=O)c3cccc(c3)S(=O)(=O)Nc3nc(cc(-c4c(C)cccc4C)n3)OC[C@H]2CC(C)C)C1 (stereo in doubt) [Compound 379]	
+++ (+++ is >60%)	< 1000			Cc1cccc(C)c1-c1cc2nc(n1)NS(=O)(=O)c1cccc(c1)C(=O)N([C@H]1C[C@@H](CC(C)(C)O)C1)[C@H](CC(C)(C)C)CO2 (single isomer, unassigned) [Compound 153]	
		+++ (+++ is >60%)	< 1000	CO[C@H]1C[C@H]2CC(N3C(=O)c4cccc(c4)S(=O)(=O)Nc4nc(cc(-c5c(C)cccc5C)n4)OC[C@H]3CC(C)C)C[C@H]2C1 (stereo partly drawn) [Compound 37, (11R)-12-[(3aR,6aS)-5-Methoxy-1,2,3,3a,4,5,6,6a-octahydropentalen-2-yl]-6-(2,6-dimethylphenyl)-11-isobutyl-2,2-dioxo-9-oxa-2λ^6-thia-3,5,12,19-tetrazatricyclo[12.3.1.14,8]nonadeca-1(18),4(19),5,7,14,16-hexaen-13-one]	
+++ (+++ is >60%)	< 1000			Cc1cccc(C)c1-c1cc2nc(n1)NS(=O)(=O)c1cccc(c1)C(=O)N(C1CC(N(C)C)C1)[C@H](CC1(C(F)(F)F)CC1)CO2 (single isomer, unassigned) [Compound 61]	

— patent US20230382925A1, “MODULATORS OF CYSTIC FIBROSIS TRANSMEMBRANE CONDUCTANCE REGULATOR” (VERTEX PHARMACEUTICALS INCORPORATED, priority 2020, published 2023)
